Key:
AKT [1] = test: Western blot of AKT protein levels in PC-3 cells; assay type: cell-based, human; details: for suppression of AKT protein level and AKT activity: 1 μM (FIGS. 11 and 12)
Description: PC-3, U87MG, HCC1143, MDA-MB-231, MDA-MB-468, BT474 and MCF-7 cell lines were purchased from ATCC. Cell lines were regularly tested in the lab for mycoplasma. All cells were cultured at 37° C. and 5% CO2. PC-3, U87MG, MDA-MB-231, MCF-7 and BT474 cells were cultured in 1×DMEM (Corning, 10-013-CV) with 10% fetal bovine serum (Atlanta Biologicals S11150) and 1× Penicillin/Streptomycin. HCC1143 cells were cultured in RPMI (Corning, 10-040-CV) medium with 10% fetal bovine serum (Atlanta Biologicals S11150) and 1× Penicillin/Streptomycin. Cells were split using 0.05% or 0.25% trypsin (Corning 25-051-Cl or 25-053-Cl, respectively) before they reached full confluence and media was changed every 3-4 days. Cells were treated with compounds individually at different concentrations for 24 hrs. Cells were treated with DMSO, VHL, or PML alone as controls.
(§1) Cells were lysed in 2× sample buffer (125 mM Tris-HCl at pH 6.8, 10% βME, 2% SDS, 20% glycerol, 0.05% Bromophenol Blue, 8 M urea). Protein lysates were loaded into 4-12% Bis-Tris gels and resolved by electrophoresis. Samples were then blotted on PVDF membrane (Millipore IPVH00010) using the wet transfer technique (Invitrogen). Membranes were blocked in 5% milk-TBST for 1 hour, washed in TBST for 10 min, and incubated in primary antibody in 5% milk-TBST or 5% BSA-TBST at 4° C. for 16 h. Membranes were rinsed (3×6 min) in TBST and incubated in horseradish peroxidase-conjugated secondary antibodies in 5% milk-TBST for 1 hour and rinsed again in TBST (3×6 min). Membranes were visualized using the chemiluminescence system (Thermo 34080, 37075) on autoradiography film (Denville E3018). Primary Antibodies: R-actin (Sigma A5316), p-AKT (Ser473 CST-9721), total AKT (CST-9272), p-S6 (Ser240/244, CST-5364), p-PRAS40 (Thr246, CST-2997). Secondary Antibodies: Mouse (Thermo 31432), Rabbit (Thermo 31460).

AKT [2] = test: Time course Western blot of AKT degradation in BT474 cells; assay type: cell-based, human
Description: as §1

CCn1c(-c2nonc2N)nc2c(C#CC(C)(C)O)ncc(OCCCNCCCC(=O)NCCCCCCCC(=O)N[C@H](C(=O)N3C[C@H](O)C[C@H]3C(=O)NCc3ccc(-c4scnc4C)cc3)C(C)(C)C)c21 [XF067-98, (2S,4R)-1-((S)-2-(8-(4-((3-((2-(4-amino-1,2,5-oxadiazol-3-yl)-1-ethyl-4-(3-hydroxy-3-methylbut-1-yn-1-yl)-1H-imidazo[4,5-c]pyridin-7-yl)oxy)propyl)amino)butanamido)octanamido)-3,3-dimethylbutanoyl)-4-hydroxy-N-(4-(4-methylthiazol-5-yl)benzyl)pyrrolidine-2-carboxamide]
suppression of AKT protein level and AKT activity (AKT [1]): effective in suppressing AKT protein level and AKT activity

Cc1ncsc1-c1ccc([C@H](C)NC(=O)[C@@H]2C[C@@H](O)CN2C(=O)[C@@H](NC(=O)CCCCCCCCCCNC(=O)CCNC[C@@H](C(=O)N2CCN(c3ncnc4c3[C@H](C)C[C@H]4O)CC2)c2ccc(Cl)cc2)C(C)(C)C)cc1 [XF042-162, (2S,4R)-1-((S)-2-(11-(3-(((S)-2-(4-chlorophenyl)-3-(4-((5R,7R)-7-hydroxy-5-methyl-6,7-dihydro-5H-cyclopenta[d]pyrimidin-4-yl)piperazin-1-yl)-3-oxopropyl)amino)propanamido)undecanamido)-3,3-dimethylbutanoyl)-4-hydroxy-N-((S)-1-(4-(4-methylthiazol-5-yl)phenyl)ethyl)pyrrolidine-2-carboxamide]
time point for the most significant AKT degradation (AKT [2]; BT474 cells (FIGS. 2 and 5)): 24 h
time-dependent reduction of AKT, p-AKT, P-PRAS40 (T246), and P-S6 (S240/244) protein levels (AKT [2]; BT474 cells, 1 μM): time-dependently reduce

Cc1ncsc1-c1ccc(CNC(=O)[C@@H]2C[C@@H](O)CN2C(=O)[C@@H](NC(=O)CCCCCCCCCNC(=O)CCc2cccc(-c3ccc4nc(-c5cccnc5N)n(-c5ccc(C6(N)CCC6)cc5)c4n3)c2)C(C)(C)C)cc1 [XF067-17, (2S,4R)-1-((S)-2-(10-(3-(3-(3-(4-(1-aminocyclobutyl)phenyl)-2-(2-aminopyridin-3-yl)-3H-imidazo[4,5-b]pyridin-5-yl)phenyl)propanamido)decanamido)-3,3-dimethylbutanoyl)-4-hydroxy-N-(4-(4-methylthiazol-5-yl)benzyl)pyrrolidine-2-carboxamide]
suppression of AKT protein level and AKT activity (AKT [1]): effective in suppressing AKT protein level and AKT activity

CCn1c(-c2nonc2N)nc2c(C#CC(C)(C)O)ncc(OC[C@H]3CCCNC3)c21 [GSK690693, 4-(2-(4-amino-1,2,5-oxadiazol-3-yl)-1-ethyl-7-{[(3S)-3-piperidinylmethyl]oxy}-1H-imidazo[4,5-c]pyridin-4-yl)-2-methyl-3-butyn-2-ol, reference compound]
AKT protein levels (AKT [1]; 1 μM for 24 h (FIGS. 11, 12)): no effect

Cc1ncsc1-c1ccc(CNC(=O)[C@@H]2C[C@@H](O)CN2C(=O)[C@@H](NC(=O)CCCCCCCC(=O)NCCc2cccc(-c3ccc4nc(-c5cccnc5N)n(-c5ccc(C6(N)CCC6)cc5)c4n3)c2)C(C)(C)C)cc1 [XF067-45, N^1-(3-(3-(4-(1-aminocyclobutyl)phenyl)-2-(2-aminopyridin-3-yl)-3H-imidazo[4,5-b]pyridin-5-yl)phenethyl)-N^9-((S)-1-((2S,4R)-4-hydroxy-2-((4-(4-methylthiazol-5-yl)benzyl)carbamoyl)pyrrolidin-1-yl)-3,3-dimethyl-1-oxobutan-2-yl)nonanediamide]
suppression of AKT protein level and AKT activity (AKT [1]): effective in suppressing AKT protein level and AKT activity

Cc1ncsc1-c1ccc(CNC(=O)[C@@H]2C[C@@H](O)CN2C(=O)[C@@H](NC(=O)CCCCCCCNC(=O)CCc2cccc(-c3ccc4nc(-c5cccnc5N)n(-c5ccc(C6(N)CCC6)cc5)c4n3)c2)C(C)(C)C)cc1 [XF067-15, (2S,4R)-1-((S)-2-(8-(3-(3-(3-(4-(1-aminocyclobutyl)phenyl)-2-(2-aminopyridin-3-yl)-3H-imidazo[4,5-b]pyridin-5-yl)phenyl)propanamido)octanamido)-3,3-dimethylbutanoyl)-4-hydroxy-N-(4-(4-methylthiazol-5-yl)benzyl)pyrrolidine-2-carboxamide]
suppression of AKT protein level and AKT activity (AKT [1]): effective in suppressing AKT protein level and AKT activity

CCn1c(-c2nonc2N)nc2c(C#CC(C)(C)O)ncc(OCCCNCCCC(=O)NCCCCCCCCC(=O)N[C@H](C(=O)N3C[C@H](O)C[C@H]3C(=O)NCc3ccc(-c4scnc4C)cc3)C(C)(C)C)c21 [XF067-99, (2S,4R)-1-((S)-2-(9-(4-((3-((2-(4-amino-1,2,5-oxadiazol-3-yl)-1-ethyl-4-(3-hydroxy-3-methylbut-1-yn-1-yl)-1H-imidazo[4,5-c]pyridin-7-yl)oxy)propyl)amino)butanamido)nonanamido)-3,3-dimethylbutanoyl)-4-hydroxy-N-(4-(4-methylthiazol-5-yl)benzyl)pyrrolidine-2-carboxamide]
suppression of AKT protein level and AKT activity (AKT [1]): effective in suppressing AKT protein level and AKT activity

Cc1ncsc1-c1ccc(CNC(=O)[C@@H]2C[C@@H](O)CN2C(=O)[C@@H](NC(=O)CCCCCCCCCCNC(=O)CCc2cccc(-c3ccc4nc(-c5cccnc5N)n(-c5ccc(C6(N)CCC6)cc5)c4n3)c2)C(C)(C)C)cc1 [XF067-18, (2S,4R)-1-((S)-2-(11-(3-(3-(3-(4-(1-aminocyclobutyl)phenyl)-2-(2-aminopyridin-3-yl)-3H-imidazo[4,5-b]pyridin-5-yl)phenyl)propanamido)undecanamido)-3,3-dimethylbutanoyl)-4-hydroxy-N-(4-(4-methylthiazol-5-yl)benzyl)pyrrolidine-2-carboxamide]
suppression of AKT protein level and AKT activity (AKT [1]): effective in suppressing AKT protein level and AKT activity

Cc1ncsc1-c1ccc(CNC(=O)[C@@H]2C[C@@H](O)CN2C(=O)[C@@H](NC(=O)CCCCCCCCC(=O)NCCc2cccc(-c3ccc4nc(-c5cccnc5N)n(-c5ccc(C6(N)CCC6)cc5)c4n3)c2)C(C)(C)C)cc1 [XF067-46, N^1-(3-(3-(4-(1-aminocyclobutyl)phenyl)-2-(2-aminopyridin-3-yl)-3H-imidazo[4,5-b]pyridin-5-yl)phenethyl)-N^10-((S)-1-((2S,4R)-4-hydroxy-2-((4-(4-methylthiazol-5-yl)benzyl)carbamoyl)pyrrolidin-1-yl)-3,3-dimethyl-1-oxobutan-2-yl)decanediamide]
suppression of AKT protein level and AKT activity (AKT [1]): effective in suppressing AKT protein level and AKT activity

CCn1c(-c2nonc2N)nc2c(C#CC(C)(C)O)ncc(OCCCNCCCC(=O)NCCCCCCCCCCC(=O)N[C@H](C(=O)N3C[C@H](O)C[C@H]3C(=O)NCc3ccc(-c4scnc4C)cc3)C(C)(C)C)c21 [XF067-101, (2S,4R)-1-((S)-2-(11-(4-((3-((2-(4-amino-1,2,5-oxadiazol-3-yl)-1-ethyl-4-(3-hydroxy-3-methylbut-1-yn-1-yl)-1H-imidazo[4,5-c]pyridin-7-yl)oxy)propyl)amino)butanamido)undecanamido)-3,3-dimethylbutanoyl)-4-hydroxy-N-(4-(4-methylthiazol-5-yl)benzyl)pyrrolidine-2-carboxamide]
suppression of AKT protein level and AKT activity (AKT [1]): effective in suppressing AKT protein level and AKT activity

CCn1c(-c2nonc2N)nc2c(C#CC(C)(C)O)ncc(OCCCNCCCC(=O)NCCCCCCCNc3cccc4c3C(=O)N(C3CCC(=O)NC3=O)C4=O)c21 (stereo not shown) [XF067-112, 4-((3-((2-(4-amino-1,2,5-oxadiazol-3-yl)-1-ethyl-4-(3-hydroxy-3-methylbut-1-yn-1-yl)-1H-imidazo[4,5-c]pyridin-7-yl)oxy)propyl)amino)-N-(7-((2-(2,6-dioxopiperidin-3-yl)-1,3-dioxoisoindolin-4-yl)amino)heptyl)butanamide]
suppression of AKT protein level and AKT activity (AKT [1]): effective in suppressing AKT protein level and AKT activity

CCn1c(-c2nonc2N)nc2c(C#CC(C)(C)O)ncc(OCCCNCCCC(=O)NCCCCCCCCNc3cccc4c3C(=O)N(C3CCC(=O)NC3=O)C4=O)c21 (stereo not shown) [XF067-113, 4-((3-((2-(4-amino-1,2,5-oxadiazol-3-yl)-1-ethyl-4-(3-hydroxy-3-methylbut-1-yn-1-yl)-1H-imidazo[4,5-c]pyridin-7-yl)oxy)propyl)amino)-N-(8-((2-(2,6-dioxopiperidin-3-yl)-1,3-dioxoisoindolin-4-yl)amino)octyl)butanamide]
suppression of AKT protein level and AKT activity (AKT [1]): effective in suppressing AKT protein level and AKT activity
